Consider one compound from patent US10130611B2, “Use of benzo-heterocycle derivatives for preventing and treating cancer or for inhibiting cancer metastasis” (MEDICINAL BIOCONVERGENCE RESEARCH CENTER, priority 2009, dated 2018).

In general, inhibition refers to the change of the read-out against control, counted positive when it falls.

Structures are written as SMILES.

For the test, the target named is T1, interaction between KRS and laminin receptor (67LR) (Homo sapiens, UniProt Q15046).
T1 construct: expressed in transfected cells; host or cells: yeast EGY/SH cells
Kind of test: Yeast two hybrid growth assay, LexA-KRS/B42-LR pair. It counts as cell-based. The protocol:
On the compound of the present invention obtained by screening a library of compounds, the extent of inhibition on the interaction between KRS and laminin receptor (67LR) was determined by a yeast two hybrid assay, as described below. KRS, LR, AIMP2, AIMP3 and MRS were cloned at LexA vector (clontech) and B42 vector (clontech) each so as to produce required vectors. From among the vectors, LexA-KRS vector and B42-LR vector were co-transformed into yeast EGY/SH cells, and then the yeast cells were diluted to an absorbance (540 nm wavelength) of 0.2 in galactose medium not containing uracil (Ura), histidine (His), tryptophane (Trp) and leucine (Leu), and placed in an amount of 200 u in a 96 well plate. 1 μl of each compound at a concentration of 10 mg/ml was placed in each well, incubated for 6 days, and the absorbance was measured at 540 nm. […] The inhibitory specificity of the selected compound was tested by using two different interaction pairs such as LexA-KRS/B42-AIMP2 and LexA-MRS/B42-AIMP3.
In order to determine if the compound of the present invention controls the interaction between KRS and laminin receptor, the present inventors determined the interaction between KRS and 67LR through treatment of the compound of the present invention.

T1 sequence (Q15046 whole entry): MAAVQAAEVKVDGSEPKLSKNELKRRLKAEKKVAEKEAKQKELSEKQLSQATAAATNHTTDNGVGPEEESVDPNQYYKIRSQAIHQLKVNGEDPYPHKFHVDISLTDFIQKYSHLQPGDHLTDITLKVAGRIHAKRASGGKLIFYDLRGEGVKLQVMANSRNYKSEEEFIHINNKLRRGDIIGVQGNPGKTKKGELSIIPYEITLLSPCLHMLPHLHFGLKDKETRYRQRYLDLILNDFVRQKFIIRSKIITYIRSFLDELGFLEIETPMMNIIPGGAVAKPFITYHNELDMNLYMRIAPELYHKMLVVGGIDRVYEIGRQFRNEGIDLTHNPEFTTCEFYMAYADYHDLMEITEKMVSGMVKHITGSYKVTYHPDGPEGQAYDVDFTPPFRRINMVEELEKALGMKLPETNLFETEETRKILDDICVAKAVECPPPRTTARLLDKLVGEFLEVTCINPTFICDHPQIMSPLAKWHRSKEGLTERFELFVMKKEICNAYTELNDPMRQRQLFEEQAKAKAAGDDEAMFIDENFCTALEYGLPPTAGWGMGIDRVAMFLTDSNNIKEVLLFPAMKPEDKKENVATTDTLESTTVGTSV

Take `CCC(C(=O)O)n1/c(=N/C(=O)c2ccc(C)cc2)sc2ccccc21` (centres unmarked) [Compound of formula 15, 2-[2-(4-Methyl-benzoylimino)-benzothiazol-3-yl]-butyric acid]: the inhibition at 10000 µg/mL (stock) (growth inhibition of yeast EGY/SH cells with LexA-KRS/B42-LR vs control, 1 μl of 10 mg/ml compound per well, 6 days, absorbance 540 nm, read-out: Inhibition rate(%)) was 52.1%. For the same compound, the “KRS-67LR (yeast growth, OD level)” value (yeast two hybrid pair KRS-67LR, compound at 50 μg/ml, DMSO control 0.4241) amounted to 0.2223.
